What all share (type): cell-based
In test [1] the target is T1, EZH2 (Homo sapiens, UniProt Q15910).
T1 construct: expressed in transfected cells
The test can be described thus: Quantitative SYBR green RT-PCR of E cadherin transcripts in EZH2 overexpressing cells. How it is done:
A, Chemical structure of the flavonoid isoliquiritigenin. B, Quantitative SYBR green RT-PCR of EZH2 and E cadherin transcripts in cell lines over expressing EZH2 and control adenoviruses. RT-PCR on each sample was performed in duplicate, and a ratio was calculated relative to the housekeeping genes GAPDH. Transcripts were also measured in cells that were treated with isoliquiritigenin or other small molecules.
(§1) A, Dose response of isoliquiritigenin on inhibiting EZH2 mediated repression. B, A reconstituted basement membrane invasion chamber assay was used to assess the invasion of breast epithelial cell line infected with EZH2 and control adenoviruses as well as SET domain mutant EZH2 adenovirus. EZH2 treated cells were also treated with SAHA, the HDAC inhibitor and isoliquiritigenin, the small molecule inhibitor of EZH2 and the control small molecule phloretin.

Test [2] deals with T1, EZH2. Briefly: E-cadherin promoter-luciferase reporter high throughput screen in EZH2 adenovirus infected cells. The settings on record: final compound concentration about 5 μM, 24 hours. How it is done:
A high throughput screening protocol was used to identify small molecule inhibitors of EZH2. Primary breast cancer cells were transfected with the E-cadherin promoter luciferase reporter gene and infected with the EZH2 adenovirus to suppress luciferase expression 48 hours prior to compound addition. Eighteen hours prior to compound addition, cells were trypsinized and distributed into 384-well plates in 60 μl of medium using the Multidrop equipment. At time zero, compounds were transferred from 1.5 mM DMSO stocks to the cell plates in a final compound concentration of about 5 μM. […] After 24 hours, the expressed luciferase activity was measured by adding 50 μl of the medium and 10 μl of Steady-Glo luciferase reagent (Promega). Sample plates were read in the Pherastar plate reader (BMG Labtech). Each plate in the screen contains 320 compounds to be tested plus 64 control wells placed in the outer two columns on each side of the plate (>50,000 compounds are screened). […] More than 4000 small molecules were screened, which included synthetic chemicals as well as natural products that are available in the Center for Chemical Genomics (CCG) library at the University of Michigan.
In general terms: A reporter such as luciferase makes a cellular process visible.

The test system of test [3] is HME cells overexpressing EZH2. The test can be described thus: Basement membrane invasion chamber assay, breast cell line HME overexpressing EZH2. How it is done:
as §1

T1 sequence (Q15910 whole entry): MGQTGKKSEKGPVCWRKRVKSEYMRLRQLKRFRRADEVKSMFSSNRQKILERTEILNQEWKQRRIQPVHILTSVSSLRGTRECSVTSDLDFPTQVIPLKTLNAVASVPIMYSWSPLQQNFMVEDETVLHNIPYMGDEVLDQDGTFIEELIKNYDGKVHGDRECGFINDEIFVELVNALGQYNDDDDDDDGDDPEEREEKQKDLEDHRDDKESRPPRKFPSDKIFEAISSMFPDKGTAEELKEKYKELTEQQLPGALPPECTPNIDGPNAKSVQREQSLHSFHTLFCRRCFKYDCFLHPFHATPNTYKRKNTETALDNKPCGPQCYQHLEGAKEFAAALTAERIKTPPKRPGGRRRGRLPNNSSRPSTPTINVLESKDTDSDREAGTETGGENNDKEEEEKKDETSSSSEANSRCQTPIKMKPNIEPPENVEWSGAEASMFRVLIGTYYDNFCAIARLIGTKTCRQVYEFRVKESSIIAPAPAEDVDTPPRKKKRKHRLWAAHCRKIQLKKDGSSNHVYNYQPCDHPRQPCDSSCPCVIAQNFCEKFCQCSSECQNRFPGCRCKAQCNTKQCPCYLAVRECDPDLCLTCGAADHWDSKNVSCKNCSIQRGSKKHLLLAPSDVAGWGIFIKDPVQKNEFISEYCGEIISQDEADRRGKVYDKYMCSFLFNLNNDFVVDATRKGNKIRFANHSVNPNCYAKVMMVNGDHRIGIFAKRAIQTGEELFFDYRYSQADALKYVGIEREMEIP

Turning to `O=C(/C=C/c1ccc(O)cc1)c1ccc(O)cc1O` [isoliquiritigenin], the “inhibition of EZH2 mediated E cadherin repression” value at EZH2 [1] (RT-PCR, cells over expressing EZH2) is “significantly inhibit”. Besides, the “concentration that optimally inhibits the EZH2 mediated E cadherin repression” value at EZH2 [1] (dose response) is 16 µM. Further, the EZH2 inhibitory activity entry on EZH2 [2] is reported as “potent small molecule inhibitor of EZH2 activity”. Further, in test [3], the “inhibition of invasion mediated by EZH2 overexpression” value is “inhibited this invasion”.

The values above are taken from US8524682B2, “Compositions and methods for inhibiting EZH2” (The Regents of the University of Michigan, priority 2007, dated 2013).
